Test results as given in ChEMBL document CHEMBL2424622, “Development of amino-pyrimidine inhibitors of c-Jun N-terminal kinase (JNK): kinase profiling guided optimization of a 1,2,3-benzotriazole lead” (Bioorg Med Chem Lett, 2013).

Experiments:
[1] = molecular target: SRSF protein kinase 2 (Homo sapiens) (UniProt P78362); assay: Competitive binding affinity to SRPK2 (unknown origin) at 10 uM in presence of ATP relative to control
[2] = molecular target: Interferon-induced, double-stranded RNA-activated protein kinase (Homo sapiens, UniProt P19525); assay: Competitive binding affinity to PRKR (unknown origin) at 10 uM in presence of ATP relative to control
[3] = molecular target: Serine/threonine-protein kinase 26 (Homo sapiens) (UniProt Q9P289); assay: Competitive binding affinity to MST4 (unknown origin) at 10 uM in presence of ATP relative to control
[4] = molecular target: T1, Tyrosine-protein kinase Tec (Homo sapiens) (UniProt P42680); assay: Competitive binding affinity to TEC (unknown origin) at 10 uM in presence of ATP relative to control
T1 sequence (whole entry): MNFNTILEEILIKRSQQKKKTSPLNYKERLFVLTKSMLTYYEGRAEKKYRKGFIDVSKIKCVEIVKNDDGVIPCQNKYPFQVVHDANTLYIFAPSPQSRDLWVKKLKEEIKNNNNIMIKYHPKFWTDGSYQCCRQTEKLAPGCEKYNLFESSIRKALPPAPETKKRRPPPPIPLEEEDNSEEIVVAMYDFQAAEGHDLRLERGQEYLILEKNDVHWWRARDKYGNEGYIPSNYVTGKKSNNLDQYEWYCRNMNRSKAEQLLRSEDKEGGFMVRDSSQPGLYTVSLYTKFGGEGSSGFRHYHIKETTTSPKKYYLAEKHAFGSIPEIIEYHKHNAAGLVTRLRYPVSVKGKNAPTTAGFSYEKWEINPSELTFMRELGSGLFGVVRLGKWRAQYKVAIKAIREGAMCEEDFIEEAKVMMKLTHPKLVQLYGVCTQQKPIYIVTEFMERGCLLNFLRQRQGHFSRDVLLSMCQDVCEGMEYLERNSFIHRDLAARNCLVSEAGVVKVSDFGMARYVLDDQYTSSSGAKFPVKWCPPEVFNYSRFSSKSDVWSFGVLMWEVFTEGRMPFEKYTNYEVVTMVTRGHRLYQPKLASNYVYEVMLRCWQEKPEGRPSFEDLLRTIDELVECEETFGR

[5] = molecular target: T2, MAP kinase-activated protein kinase 5 (Homo sapiens) (UniProt Q8IW41); assay: Competitive binding affinity to MAPKAPK5 (unknown origin) at 10 uM in presence of ATP relative to control
T2 sequence (whole entry): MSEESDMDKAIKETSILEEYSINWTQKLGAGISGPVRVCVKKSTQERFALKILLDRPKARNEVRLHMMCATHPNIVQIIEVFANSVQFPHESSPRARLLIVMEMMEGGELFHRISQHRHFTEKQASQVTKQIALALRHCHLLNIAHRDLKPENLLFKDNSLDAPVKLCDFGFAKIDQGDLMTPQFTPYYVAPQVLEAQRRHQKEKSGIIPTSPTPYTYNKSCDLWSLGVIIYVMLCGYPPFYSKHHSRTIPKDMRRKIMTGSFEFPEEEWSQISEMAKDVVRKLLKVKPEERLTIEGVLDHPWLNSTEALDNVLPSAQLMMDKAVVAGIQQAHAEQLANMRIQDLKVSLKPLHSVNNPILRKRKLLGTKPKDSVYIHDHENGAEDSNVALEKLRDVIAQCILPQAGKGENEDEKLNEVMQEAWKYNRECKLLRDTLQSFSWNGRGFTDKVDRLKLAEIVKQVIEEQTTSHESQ

[6] = system: Mast/stem cell growth factor receptor Kit (Homo sapiens), P10721 [D816V]; assay: Competitive binding affinity to KIT D816V mutant (unknown origin) at 10 uM in presence of ATP relative to control
[7] = molecular target: T3, Serine/threonine-protein kinase BRSK1 (Homo sapiens) (UniProt Q8TDC3); assay: Competitive binding affinity to BRSK1 (unknown origin) at 10 uM in presence of ATP relative to control
T3 sequence (whole entry): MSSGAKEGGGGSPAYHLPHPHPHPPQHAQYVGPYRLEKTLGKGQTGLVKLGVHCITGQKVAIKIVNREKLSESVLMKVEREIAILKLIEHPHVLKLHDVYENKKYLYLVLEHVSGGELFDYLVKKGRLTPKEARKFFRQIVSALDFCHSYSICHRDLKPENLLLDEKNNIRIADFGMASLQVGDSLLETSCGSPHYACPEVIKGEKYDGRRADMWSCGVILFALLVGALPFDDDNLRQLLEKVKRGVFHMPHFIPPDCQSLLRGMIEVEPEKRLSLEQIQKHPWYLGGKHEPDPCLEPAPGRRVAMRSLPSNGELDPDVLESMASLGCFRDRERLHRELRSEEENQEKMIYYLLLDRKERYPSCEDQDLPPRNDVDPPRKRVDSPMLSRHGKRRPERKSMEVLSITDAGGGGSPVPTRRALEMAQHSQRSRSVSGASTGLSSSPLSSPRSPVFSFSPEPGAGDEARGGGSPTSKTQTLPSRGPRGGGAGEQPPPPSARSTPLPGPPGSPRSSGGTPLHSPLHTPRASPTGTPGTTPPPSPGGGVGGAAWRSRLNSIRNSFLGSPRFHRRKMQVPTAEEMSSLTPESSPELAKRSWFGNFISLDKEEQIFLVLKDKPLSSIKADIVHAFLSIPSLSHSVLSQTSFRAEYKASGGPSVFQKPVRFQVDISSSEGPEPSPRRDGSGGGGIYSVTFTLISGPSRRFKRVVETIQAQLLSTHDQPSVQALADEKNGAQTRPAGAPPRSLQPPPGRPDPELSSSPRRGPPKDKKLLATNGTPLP

[8] = molecular target: T4, Dual specificity mitogen-activated protein kinase kinase 4 (Homo sapiens) (UniProt P45985); assay: Competitive binding affinity to MEK4 (unknown origin) at 10 uM in presence of ATP relative to control
T4 sequence (whole entry): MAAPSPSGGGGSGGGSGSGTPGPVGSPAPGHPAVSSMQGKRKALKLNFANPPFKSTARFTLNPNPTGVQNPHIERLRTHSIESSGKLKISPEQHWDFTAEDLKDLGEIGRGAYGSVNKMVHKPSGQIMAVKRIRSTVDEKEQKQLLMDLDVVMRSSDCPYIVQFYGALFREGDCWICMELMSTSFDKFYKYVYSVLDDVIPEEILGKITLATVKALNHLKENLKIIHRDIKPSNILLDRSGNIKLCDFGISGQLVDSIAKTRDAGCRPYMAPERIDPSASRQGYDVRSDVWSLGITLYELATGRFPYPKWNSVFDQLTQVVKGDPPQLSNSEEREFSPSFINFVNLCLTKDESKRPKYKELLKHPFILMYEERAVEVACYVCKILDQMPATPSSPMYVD

[9] = molecular target: Serine/threonine-protein kinase 10 (Homo sapiens) (UniProt O94804); assay: Competitive binding affinity to LOK (unknown origin) at 10 uM in presence of ATP relative to control
Serine/threonine-protein kinase 10 (Homo sapiens), sequence (O94804 whole entry, looked up): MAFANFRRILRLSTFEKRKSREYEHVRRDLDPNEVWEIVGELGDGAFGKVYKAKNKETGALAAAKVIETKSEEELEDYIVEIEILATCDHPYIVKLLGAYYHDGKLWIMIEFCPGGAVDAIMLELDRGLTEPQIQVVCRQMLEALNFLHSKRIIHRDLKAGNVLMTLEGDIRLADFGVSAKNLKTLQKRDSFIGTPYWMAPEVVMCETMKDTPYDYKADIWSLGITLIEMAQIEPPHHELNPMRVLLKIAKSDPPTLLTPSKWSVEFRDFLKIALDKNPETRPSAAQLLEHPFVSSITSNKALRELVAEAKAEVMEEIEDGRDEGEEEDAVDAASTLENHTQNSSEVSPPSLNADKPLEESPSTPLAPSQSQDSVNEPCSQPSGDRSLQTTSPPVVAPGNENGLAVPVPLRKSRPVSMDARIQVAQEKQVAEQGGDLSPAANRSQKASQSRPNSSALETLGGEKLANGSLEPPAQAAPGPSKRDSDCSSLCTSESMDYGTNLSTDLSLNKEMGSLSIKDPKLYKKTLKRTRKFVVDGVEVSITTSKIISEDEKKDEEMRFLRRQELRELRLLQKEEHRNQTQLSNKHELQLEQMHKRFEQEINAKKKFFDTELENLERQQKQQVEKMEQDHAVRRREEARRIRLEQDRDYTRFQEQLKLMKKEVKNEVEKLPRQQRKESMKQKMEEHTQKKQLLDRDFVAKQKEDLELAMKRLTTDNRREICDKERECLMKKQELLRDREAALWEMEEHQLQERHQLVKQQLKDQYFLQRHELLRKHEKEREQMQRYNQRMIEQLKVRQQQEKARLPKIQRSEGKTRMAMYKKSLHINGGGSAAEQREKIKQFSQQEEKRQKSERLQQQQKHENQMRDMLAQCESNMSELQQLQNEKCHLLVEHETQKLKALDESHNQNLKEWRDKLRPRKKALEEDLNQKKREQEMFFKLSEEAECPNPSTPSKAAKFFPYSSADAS

Interferon-induced, double-stranded RNA-activated protein kinase, sequence (P19525 whole entry): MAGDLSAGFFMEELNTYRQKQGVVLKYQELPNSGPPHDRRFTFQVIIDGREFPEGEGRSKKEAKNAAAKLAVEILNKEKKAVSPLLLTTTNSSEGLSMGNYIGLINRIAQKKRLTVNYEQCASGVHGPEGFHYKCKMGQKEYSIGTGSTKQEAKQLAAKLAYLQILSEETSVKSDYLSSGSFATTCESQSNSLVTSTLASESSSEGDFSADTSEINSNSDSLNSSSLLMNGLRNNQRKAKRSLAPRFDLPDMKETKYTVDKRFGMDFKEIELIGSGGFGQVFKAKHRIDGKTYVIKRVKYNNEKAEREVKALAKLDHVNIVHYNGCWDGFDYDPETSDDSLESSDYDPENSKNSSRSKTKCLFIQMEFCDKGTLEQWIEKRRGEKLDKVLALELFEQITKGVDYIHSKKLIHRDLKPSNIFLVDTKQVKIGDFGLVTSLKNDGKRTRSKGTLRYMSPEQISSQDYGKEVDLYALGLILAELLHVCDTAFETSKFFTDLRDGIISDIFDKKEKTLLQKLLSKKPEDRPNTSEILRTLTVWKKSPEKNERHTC
Mast/stem cell growth factor receptor Kit (Homo sapiens), P10721 [D816V], sequence (P10721 whole entry D816V): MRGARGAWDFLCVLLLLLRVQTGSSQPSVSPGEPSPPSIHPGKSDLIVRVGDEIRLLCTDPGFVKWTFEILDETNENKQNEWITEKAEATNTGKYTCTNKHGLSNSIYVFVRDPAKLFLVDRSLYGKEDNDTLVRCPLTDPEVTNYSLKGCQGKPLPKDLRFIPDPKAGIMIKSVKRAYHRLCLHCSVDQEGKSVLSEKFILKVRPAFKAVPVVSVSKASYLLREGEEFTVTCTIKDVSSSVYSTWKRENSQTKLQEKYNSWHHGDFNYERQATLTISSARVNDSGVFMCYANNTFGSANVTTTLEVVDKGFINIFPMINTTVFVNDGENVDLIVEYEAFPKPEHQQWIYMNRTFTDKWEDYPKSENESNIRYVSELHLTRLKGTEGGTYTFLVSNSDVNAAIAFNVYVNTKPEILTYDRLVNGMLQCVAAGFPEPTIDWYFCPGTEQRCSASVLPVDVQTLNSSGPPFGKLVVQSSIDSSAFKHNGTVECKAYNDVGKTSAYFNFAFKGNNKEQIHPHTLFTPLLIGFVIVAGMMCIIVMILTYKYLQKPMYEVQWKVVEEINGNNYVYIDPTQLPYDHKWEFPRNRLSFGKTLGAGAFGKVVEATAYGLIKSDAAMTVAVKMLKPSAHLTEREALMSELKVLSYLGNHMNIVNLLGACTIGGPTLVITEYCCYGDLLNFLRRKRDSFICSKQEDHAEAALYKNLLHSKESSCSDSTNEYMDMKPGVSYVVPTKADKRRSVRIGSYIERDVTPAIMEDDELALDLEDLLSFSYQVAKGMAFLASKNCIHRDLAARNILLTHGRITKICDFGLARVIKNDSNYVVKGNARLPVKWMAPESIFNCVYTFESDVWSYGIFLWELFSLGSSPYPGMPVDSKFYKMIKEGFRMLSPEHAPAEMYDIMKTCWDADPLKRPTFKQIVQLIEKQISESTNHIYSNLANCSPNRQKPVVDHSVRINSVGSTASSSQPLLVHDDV
SRSF protein kinase 2 (Homo sapiens), sequence (P78362 whole entry, looked up): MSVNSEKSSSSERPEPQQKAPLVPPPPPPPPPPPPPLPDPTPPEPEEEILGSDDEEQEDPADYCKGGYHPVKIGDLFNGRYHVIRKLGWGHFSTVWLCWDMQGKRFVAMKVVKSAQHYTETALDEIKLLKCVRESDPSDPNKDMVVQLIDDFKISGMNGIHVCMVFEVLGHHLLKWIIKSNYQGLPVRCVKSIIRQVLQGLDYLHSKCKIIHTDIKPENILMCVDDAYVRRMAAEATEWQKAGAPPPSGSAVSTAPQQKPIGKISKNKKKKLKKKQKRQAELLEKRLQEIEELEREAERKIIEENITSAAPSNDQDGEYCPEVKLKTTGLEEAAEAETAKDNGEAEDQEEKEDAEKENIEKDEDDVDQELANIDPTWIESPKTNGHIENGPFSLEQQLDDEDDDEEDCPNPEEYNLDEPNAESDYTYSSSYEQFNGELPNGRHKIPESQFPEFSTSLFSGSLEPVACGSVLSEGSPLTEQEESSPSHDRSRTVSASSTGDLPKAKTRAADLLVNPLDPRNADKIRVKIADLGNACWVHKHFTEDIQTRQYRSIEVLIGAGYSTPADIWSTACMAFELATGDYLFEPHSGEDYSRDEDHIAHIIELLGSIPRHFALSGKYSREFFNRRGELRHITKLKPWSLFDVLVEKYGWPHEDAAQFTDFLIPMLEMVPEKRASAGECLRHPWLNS
Serine/threonine-protein kinase 26 (Homo sapiens), sequence (Q9P289 2-416 limits assumed): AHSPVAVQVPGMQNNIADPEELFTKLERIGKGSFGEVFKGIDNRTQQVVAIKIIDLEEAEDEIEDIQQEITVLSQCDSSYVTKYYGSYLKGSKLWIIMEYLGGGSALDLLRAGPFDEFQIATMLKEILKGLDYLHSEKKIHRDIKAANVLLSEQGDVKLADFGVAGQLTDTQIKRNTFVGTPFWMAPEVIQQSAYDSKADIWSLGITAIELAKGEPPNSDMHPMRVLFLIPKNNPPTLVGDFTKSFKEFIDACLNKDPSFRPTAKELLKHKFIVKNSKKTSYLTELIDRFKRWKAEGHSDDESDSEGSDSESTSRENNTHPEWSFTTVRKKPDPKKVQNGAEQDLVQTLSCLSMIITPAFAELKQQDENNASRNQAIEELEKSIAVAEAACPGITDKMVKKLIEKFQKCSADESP

Row | SMILES | inhibition [1] | inhibition [2] | inhibition [3] | inhibition [4] | inhibition [5] | inhibition [6] | inhibition [7] | inhibition [8] | inhibition [9]
1 | O[C@H]1CC[C@H](Nc2nccc(-n3nnc4ccccc43)n2)CC1 | < 50% | 100% | 79% | < 50% | < 50% | 98% | < 50% | 99% | < 50%
2 | CS(=O)(=O)CCCOc1cccc2c1ccn2-c1ccnc(N[C@H]2CC[C@H](C(=O)N3CCC(O)CC3)CC2)n1 |  |  |  |  |  |  |  | > 85% | 
3 | O[C@H]1CC[C@H](Nc2nccc(-n3ncc4ccccc43)n2)CC1 | < 50% | 100% | 76% | < 50% | < 50% | 63% | < 50% | 99% | < 50%
4 | O[C@H]1CC[C@H](Nc2nccc(-c3n[nH]c4ccccc34)n2)CC1 |  |  | 94% |  |  | 94% |  |  | 88%
5 | O[C@H]1CC[C@H](Nc2nccc(-n3ccc4ccccc43)n2)CC1 | < 50% | 95% | 80% | < 50% | < 50% | < 50% | < 50% | 97% | < 50%
